According to patent US20260101893A1, “FUNGICIDAL COMPOSITIONS” (SYNGENTA CROP PROTECTION AG, priority 2022, published 2026):

Legend:
Assay type in all cases: cell-based
[1] = system: Glomerella lagenarium (Colletotrichum lagenarium); test: Fungicidal activity against Glomerella lagenarium (Colletotrichum lagenarium) liquid culture/cucumber/preventative (Anthracnose)
Procedure: (§1) Fungicidal activity against Glomerella lagenarium (Colletotrichum lagenarium) liquid culture/cucumber/preventative (Anthracnose) Conidia of the fungus from cryogenic storage were directly mixed into nutrient broth (PDB potato dextrose broth). A DMSO solution of the test compounds was placed into a microtiter plate (96-well format) and the nutrient broth containing the fungal spores was added to it. The test plates were incubated at 24° C. and after 72 hours the fungal growth was assessed visually and compared to the growth in untreated wells. The scores were recorded as % control compared to the untreated wells. The action to be expected E for a given active ingredient combination was calculated using the COLBY formula as follows: • ppm=milligrams of active ingredient (=a.i.) per liter of spray mixture • X=% action by active ingredient (A) using p ppm of active ingredient • Y=% action by active ingredients (B+C) using q ppm of active ingredient. According to COLBY, the expected (additive) action of active ingredients (A)+(B+C) using p+q ppm of active ingredient is: [formula]

[2] = system: Zymoseptoria tritici (Septoria tritici); test: Fungicidal activity against Zymoseptoria tritici (Septoria tritici) (leaf blotch), liquid culture in PDB, 96-well microtiter plate
Procedure: as §1, with “Zymoseptoria tritici (Septoria tritici) (leaf blotch)” for “Glomerella lagenarium (Colletotrichum lagenarium) liquid culture/cucumber/preventative (Anthracnose)”

[3] = system: Mycosphaerella arachidis Syn. Cercospora arachidicola; test: Fungicidal activity against Mycosphaerella arachidis syn. Cercospora arachidicola (brown leaf spot), liquid culture in PDB, 96-well microtiter plate
Procedure: as §1, with “Activity Against Mycosphaerella arachidis Syn. Cercospora arachidicola (Brown Leaf Spot)” for “activity against Glomerella lagenarium (Colletotrichum lagenarium) liquid culture/cucumber/preventative (Anthracnose)”, “5 days” for “72 hours”

SMILES: CO/C=C(\Oc1cc(C2CCCCC2)ccc1C)C(=O)OC [Compound X.04, methyl (Z)-2-(5-cyclohexyl-2-methyl-phenoxy)-3-methoxy-prop-2-enoate]
- % control Score ([1]; X.04 0.02 ppm): 0%
- % control Score ([1]; X.04 0.02 ppm alone): 0%
- % control Score ([1]; X.04 0.02 ppm, Table B2): 0%
- % control Score ([1]; X.04 0.07 ppm): 70%
- % control Score ([1]; X.04 0.07 ppm alone): 70%
- % control Score ([1]; X.04 0.07 ppm, Table B2): 70%
- % control Score ([1]; X.04 0.2 ppm): 100%
- % control Score ([1]; X.04 0.2 ppm alone): 100%
- % control Score ([1]; X.04 0.2 ppm, Table B2): 100%
- Colletotrichum lagenarium % control Score ([1]; ppm: X.04 0.02): 0%
- Colletotrichum lagenarium % control Score ([1]; ppm: X.04 0.07): 70%
- Colletotrichum lagenarium % control Score ([1]; ppm: X.04 0.2): 100%
- % control Score ([2]; X.04 0.02 ppm): 0%
- % control Score ([2]; X.04 0.02 ppm alone): 0%
- % control Score ([2]; X.04 0.02 ppm, Table B2): 0%
- % control Score ([2]; X.04 0.07 ppm): 0%
- % control Score ([2]; X.04 0.07 ppm alone): 0%
- % control Score ([2]; X.04 0.07 ppm, Table B2): 0%
- % control Score ([2]; X.04 0.2 ppm): 0%
- % control Score ([2]; X.04 0.2 ppm alone): 0%
- % control Score ([2]; X.04 0.2 ppm, Table B2): 0%
- Zymoseptoria tritici % control Score ([2]; ppm: X.04 0.02): 0%
- Zymoseptoria tritici % control Score ([2]; ppm: X.04 0.07): 0%
- Zymoseptoria tritici % control Score ([2]; ppm: X.04 0.2): 0%
- % control Score ([3]; X.04 0.02 ppm): 70%
- % control Score ([3]; X.04 0.02 ppm alone): 70%
- % control Score ([3]; X.04 0.02 ppm, Table B2): 70%
- % control Score ([3]; X.04 0.07 ppm): 70%
- % control Score ([3]; X.04 0.07 ppm alone): 90%
- % control Score ([3]; X.04 0.07 ppm, Table B2): 90%
- % control Score ([3]; X.04 0.2 ppm): 70%
- % control Score ([3]; X.04 0.2 ppm alone): 90%
- % control Score ([3]; X.04 0.2 ppm, Table B2): 90%
- Mycosphaerella arachidis % control Score ([3]; ppm: X.04 0.02): 70%
- Mycosphaerella arachidis % control Score ([3]; ppm: X.04 0.07): 90%
- Mycosphaerella arachidis % control Score ([3]; ppm: X.04 0.2): 90%
